The source of these data is ChEMBL document CHEMBL3860050, “Triterpenoids from Momordica balsamina: Reversal of ABCB1-mediated multidrug resistance” (Bioorg Med Chem, 2016).

Structures are written as SMILES. Where only a bound is given, the exact number is not on record here.

Data set [1] addresses T1, ATP-dependent translocase ABCB1 (Homo sapiens, UniProt P08183). Kind of data set: Inhibition of MDR1-mediated efflux-pump activity in mouse L5178Y cells expressing human MDR1 assessed as side scattered light at 20 uM preincubated for 10 mins followed by rhodamine-123 addition measured after 20 mins by flow cytometry (reference value: 194.6 to 286.4). The class given is cell-based.

The target in data set [2] is T1, ATP-dependent translocase ABCB1. Description: Inhibition of MDR1-mediated efflux-pump activity in mouse L5178Y cells expressing human MDR1 assessed as fluorescence activity ratio at 2 uM preincubated for 10 mins followed by rhodamine-123 addition measured after 20 mins by flow cytometry. The format is cell-based. (In general: Flow cytometry measures light scatter and fluorescence of single cells or particles in a stream.)

Data set [3] in a line: Antiproliferative activity against mouse L5178Y cells expressing human MDR1 measured after 72 hrs by MTT assay. The format is functional, cell-based. For orientation: Tetrazolium assays rely on reduction of a dye to a coloured formazan, in cell work by metabolically active cells.
Data set [4] has as its target T1, ATP-dependent translocase ABCB1. Description: Inhibition of MDR1-mediated efflux-pump activity in mouse L5178Y cells expressing human MDR1 assessed as forward scattered light at 2 uM preincubated for 10 mins followed by rhodamine-123 addition measured after 20 mins by flow cytometry (reference value: 455.7 to 509.9). The class given is cell-based.
Data set [5] has the same target. Kind of data set: Inhibition of MDR1-mediated efflux-pump activity in mouse L5178Y cells expressing human MDR1 assessed as mean fluorescence intensity at 2 uM preincubated for 10 mins followed by rhodamine-123 addition measured after 20 mins by flow cytometry (reference value: 7.1 to 18.6). The format is cell-based.
Data set [6] has the same target. Description: Inhibition of MDR1-mediated efflux-pump activity in mouse L5178Y cells expressing human MDR1 assessed as side scattered light at 2 uM preincubated for 10 mins followed by rhodamine-123 addition measured after 20 mins by flow cytometry (reference value: 194.6 to 286.4). The class given is cell-based.
Data set [7] has the same target. Kind of data set: Inhibition of MDR1-mediated efflux-pump activity in mouse L5178Y cells expressing human MDR1 assessed as mean fluorescence intensity at 20 uM preincubated for 10 mins followed by rhodamine-123 addition measured after 20 mins by flow cytometry (reference value: 7.1 to 18.6). The class given is cell-based.
The nature of data set [8]: Antiproliferative activity against mouse L5178Y cells measured after 72 hrs by MTT assay. The class given is functional, cell-based.
Data set [9] has as its target T1, ATP-dependent translocase ABCB1. Description: Inhibition of MDR1-mediated efflux-pump activity in mouse L5178Y cells expressing human MDR1 assessed as forward scattered light at 20 uM preincubated for 10 mins followed by rhodamine-123 addition measured after 20 mins by flow cytometry (reference value: 455.7 to 509.9). The format is cell-based.
For data set [10] the target is unchanged. Description: Inhibition of MDR1-mediated efflux-pump activity in mouse L5178Y cells expressing human MDR1 assessed as fluorescence activity ratio at 20 uM preincubated for 10 mins followed by rhodamine-123 addition measured after 20 mins by flow cytometry. The format is cell-based.

T1 sequence (P08183 whole entry): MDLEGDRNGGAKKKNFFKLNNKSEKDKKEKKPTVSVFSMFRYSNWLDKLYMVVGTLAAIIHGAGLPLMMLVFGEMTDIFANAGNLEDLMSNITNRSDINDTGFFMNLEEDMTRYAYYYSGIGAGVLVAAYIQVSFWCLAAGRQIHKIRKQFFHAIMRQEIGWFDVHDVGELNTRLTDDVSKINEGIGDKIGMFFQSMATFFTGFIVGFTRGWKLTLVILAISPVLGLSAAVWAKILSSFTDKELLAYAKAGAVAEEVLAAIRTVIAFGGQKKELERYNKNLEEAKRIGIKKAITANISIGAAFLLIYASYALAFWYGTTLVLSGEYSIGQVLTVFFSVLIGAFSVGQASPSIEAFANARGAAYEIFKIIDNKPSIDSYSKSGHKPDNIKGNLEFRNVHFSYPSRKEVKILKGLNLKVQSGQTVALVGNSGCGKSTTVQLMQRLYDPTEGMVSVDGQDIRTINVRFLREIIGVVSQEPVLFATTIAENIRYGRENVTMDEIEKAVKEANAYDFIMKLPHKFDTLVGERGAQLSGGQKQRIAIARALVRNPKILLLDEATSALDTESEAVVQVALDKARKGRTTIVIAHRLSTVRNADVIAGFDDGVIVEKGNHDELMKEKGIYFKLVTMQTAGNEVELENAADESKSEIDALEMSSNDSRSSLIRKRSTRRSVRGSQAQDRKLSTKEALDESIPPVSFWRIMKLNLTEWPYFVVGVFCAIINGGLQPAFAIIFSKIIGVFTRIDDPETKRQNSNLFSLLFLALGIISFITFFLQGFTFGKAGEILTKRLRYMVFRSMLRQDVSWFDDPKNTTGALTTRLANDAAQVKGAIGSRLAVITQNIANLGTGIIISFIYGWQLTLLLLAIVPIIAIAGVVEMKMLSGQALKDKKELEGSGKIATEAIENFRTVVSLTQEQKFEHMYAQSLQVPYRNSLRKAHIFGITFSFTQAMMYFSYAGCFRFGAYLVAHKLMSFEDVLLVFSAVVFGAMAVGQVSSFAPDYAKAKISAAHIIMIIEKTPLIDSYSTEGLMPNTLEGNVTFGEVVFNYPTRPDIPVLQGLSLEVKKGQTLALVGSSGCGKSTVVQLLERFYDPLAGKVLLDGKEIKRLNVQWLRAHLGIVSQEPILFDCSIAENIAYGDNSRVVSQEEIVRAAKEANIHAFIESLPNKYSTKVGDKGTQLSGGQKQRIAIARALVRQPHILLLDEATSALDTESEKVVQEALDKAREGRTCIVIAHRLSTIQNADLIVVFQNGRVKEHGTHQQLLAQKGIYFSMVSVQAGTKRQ

For orientation: IC50 means the concentration needed to halve the response being measured. Read a high IC50 as a need for much substance. Regarding `CO[C@H]1C=C2[C@@H](CC[C@H](O)C2(C)C)[C@]2(C)CC[C@]3(C)[C@@H]([C@H](C)C[C@H](C=C(C)C)OC(=O)CCC(=O)O)CC[C@@]3(C)[C@H]12`, the Activity was 185.6 in [1], 545.2 in data set [4], 184.1 in data set [6] and 540.1 in [9]. Moreover, the Ratio in data set [2] worked out at 1.1; in data set [10] it was 4.2. Besides, the IC50 came to 40.6 µM in [3] and 20.8 µM in data set [8]. Further, the Flu intensity was determined as 7.5 in data set [5] and 28 in [7].
As for `CC(C)=C[C@H](O)C[C@@H](C)[C@H]1CC[C@@]2(C)[C@@H]3C(O[C@H]4O[C@@H](CO)[C@H](O)[C@@H](O)[C@@H]4O)C=C4[C@@H](CC[C@H](O)C4(C)C)[C@]3(C)CC[C@]12C` (stereo partly specified), the Activity in data set [1] turned out to be 236.9; in data set [4], 557.9; in data set [6] it was 235.6; in [9], 573. Further, the values for the Ratio in data set [2] and in [10] were 1 and 2.3, respectively. Besides, the IC50 in data set [3] was 54.2 µM; in data set [8], 19.2 µM. Moreover, the figures for the Flu intensity in data set [5] and in data set [7] were 10.7 and 23.6, respectively.
On to `CC(C)=C[C@H](O)C[C@@H](C)[C@H]1CC[C@@]2(C)[C@@H]3[C@@H](O[C@H]4O[C@@H](CO)[C@H](O)[C@H](O)[C@@H]4O)C=C4[C@@H](CC[C@H](O)C4(C)C)[C@]3(C)CC[C@]12C`, for which the Activity in data set [1] is 277.2; in [4], 443.8; in data set [6], 267.4; in [9] it was 457.9. For the same compound, the figures for the Ratio in data set [2] and in data set [10] were 0.9 and 37.2, respectively. Also, the IC50 was 42.6 µM in [3] and 18.7 µM in data set [8]. The Flu intensity in data set [5] is 11.5; in data set [7], 487.1.
With `CO[C@H]1C=C2[C@@H](CC[C@H](OC(=O)c3ccccc3)C2(C)C)[C@]2(C)CC[C@]3(C)[C@@H]([C@H](C)C/C=C/C(C)(C)O)CC[C@@]3(C)[C@H]12`, the Activity is given as 235.1 in [1], 454.2 in [4], 233.1 in [6] and 444.8 in data set [9]. Moreover, the results for the Ratio in [2] and in [10] were 1 and 7.8, respectively. For the same compound, the IC50 was found to be 130 µM in data set [3] and 108 µM in [8]. Further, the values for the Flu intensity in data set [5] and in [7] were 17.9 and 140, respectively.
Turning to `CO[C@H]1C=C2[C@@H](CC[C@H](OC(=O)CCC(=O)O)C2(C)C)[C@]2(C)CC[C@]3(C)[C@@H]([C@H](C)C[C@H](C=C(C)C)OC(=O)CCC(=O)O)CC[C@@]3(C)[C@H]12`, the Activity came to 187 in [1], 545.8 in [4], 184.6 in data set [6] and 546.7 in [9]. The Ratio in [2] was 1.3; in [10] it was 5.9. Moreover, the IC50 in data set [3] is 46.9 µM; in data set [8], 16.9 µM. Further, the figures for the Flu intensity in [5] and in data set [7] were 8.2 and 39.5, respectively.
Consider `C=C(C)[C@@H](O)[C@H](O)C[C@@H](C)[C@H]1CC[C@@]2(C)[C@@H]3[C@@H](O)C=C4[C@@H](CC[C@H](O)[C@]4(C)CO)[C@]3(C)CC[C@]12C` [BALSAMINAPENTAOL A], for which the Activity in data set [1] stood at 252; in data set [4] it was 427.2; in data set [6], 254.7; in [9], 429. Moreover, the Ratio is 0.7 in data set [2] and 2.9 in data set [10]. Also, the IC50 amounted to 29.3 µM in data set [3] and 13.7 µM in data set [8]. Moreover, the Flu intensity in data set [5] was 8.8; in data set [7] it was 38.2.
For the compound `CC(=O)C[C@@H](C)[C@H]1CC[C@@]2(C)[C@@H]3C(=O)C=C4[C@@H](CC[C@H](O)[C@]4(C)CO)[C@]3(C)CC[C@]12C` [BALSAMINOL D], the Activity is reported as 256.5 in data set [1], 439.9 in data set [4], 254.3 in data set [6] and 434.2 in [9]. In addition, the Ratio is recorded as 1 in data set [2] and 1.9 in [10]. The IC50 came to 67.1 µM in [3] and 27.8 µM in [8]. In addition, the Flu intensity in [5] was found to be 10.3; in data set [7], 25.9.
On to `CC(C)=C[C@H](O)C[C@@H](C)[C@H]1CC[C@@]2(C)[C@@H]3[C@@H](O)C=C4[C@@H](CC[C@H](O)C4(C)C)[C@]3(C)CC[C@]12C` [BALSAMINOL F], for which, in data set [2], the Ratio was determined as 2.6. In addition, the IC50 in [3] came out at 20.8 µM; in [8], 8.3 µM. For the same compound, the Activity in [4] amounted to 490.7; in data set [6] it was 202.1. Besides, in data set [5], the Flu intensity turned out to be 20.1.
Regarding `C[C@H](C/C=C/C(C)(C)O)[C@H]1CC[C@@]2(C)[C@@H]3[C@@H](O)C=C4[C@@H](CC[C@H](O)C4(C)C)[C@]3(C)C[C@@H](O)[C@]12C` [CUCURBALSAMINOL A], the Activity is given as 252 in data set [1], 427.2 in [4], 254.7 in data set [6] and 429 in data set [9]. Moreover, the Ratio amounted to 0.7 in data set [2] and 2.9 in [10]. The IC50 in data set [3] was 63.4 µM; in data set [8], 48.2 µM. The Flu intensity in data set [5] was 8.8; in data set [7], 38.2.
As to `CCCC(=O)O[C@H]1CC[C@@H]2C(=C[C@H](OC)[C@@H]3[C@@]2(C)CC[C@]2(C)[C@@H]([C@H](C)C[C@H](C=C(C)C)OC(=O)CCC)CC[C@@]32C)C1(C)C` [KARAVOATE F], the Activity in data set [1] was 218.7; in data set [4], 542.6; in [6] it was 218.3; in data set [9] it was 541. Moreover, the Ratio in [2] turned out to be 1.4; in [10], 1.6. Moreover, the IC50 is greater than 133 µM in data set [3] and 93.2 µM in data set [8]. The Flu intensity in data set [5] worked out at 10.8; in data set [7] it was 12.3.
Turning to `CO[C@H]1C=C2[C@@H](CC[C@H](OC(=O)c3ccccc3)C2(C)C)[C@]2(C)CC[C@]3(C)[C@@H]([C@H](C)C[C@H](C=C(C)C)OC(=O)c4ccccc4)CC[C@@]3(C)[C@H]12` [KARAVOATE H], the Activity amounted to 215.4 in data set [1], 504.9 in data set [4], 200.4 in data set [6] and 519.8 in data set [9]. In addition, the Ratio in data set [2] stood at 1.2; in data set [10] it was 1.3. Moreover, the values for the IC50 in [3] and in data set [8] were 96.4 µM and greater than 133 µM, respectively. Also, the Flu intensity in [5] is 9; in data set [7] it was 10.4.
Regarding `CO[C@H]1C=C2[C@@H](CC[C@H](O)C2(C)C)[C@]2(C)CC[C@]3(C)[C@@H]([C@H](C)C[C@H](C=C(C)C)OC(=O)c4ccc([N+](=O)[O-])cc4)CC[C@@]3(C)[C@H]12` [KARAVOATE I], the Activity is recorded as 182.9 in data set [1], 537.3 in data set [4], 184.1 in data set [6] and 534.1 in data set [9]. Besides, the Ratio was determined as 2.1 in [2] and 3.9 in data set [10]. In addition, the IC50 in data set [3] was 60.4 µM; in data set [8], 29 µM. Further, the Flu intensity in [5] is 14.3; in data set [7] it was 25.9.
In the case of `CO[C@H]1C=C2[C@@H](CC[C@H](OC(=O)c3ccc([N+](=O)[O-])cc3)C2(C)C)[C@]2(C)CC[C@]3(C)[C@@H]([C@H](C)C[C@H](C=C(C)C)OC(=O)c4ccc([N+](=O)[O-])cc4)CC[C@@]3(C)[C@H]12` [KARAVOATE J], the Activity stood at 184.1 in [1], 543.4 in data set [4], 186.3 in [6] and 537.3 in [9]. Besides, the Ratio was found to be 1.4 in [2] and 2.1 in data set [10]. For the same compound, the IC50 in data set [3] amounted to 87.9 µM; in data set [8], 59.4 µM. The Flu intensity in [5] is listed as 9.5; in data set [7] it was 14.3.
Turning to `CO[C@H]1C=C2[C@@H](CC[C@H](O)C2(C)C)[C@]2(C)CC[C@]3(C)[C@@H]([C@H](C)C[C@H](C=C(C)C)OC(=O)c4ccc(Cl)cc4)CC[C@@]3(C)[C@H]12` [KARAVOATE K], the Activity in [1] worked out at 210.8; in data set [4], 517.9; in data set [6], 207; in data set [9], 511.1. For the same compound, the Ratio in data set [2] was 1.4; in data set [10] it was 1.6. Also, the IC50 in data set [3] worked out at 93.2 µM; in data set [8] it was 63.4 µM. Moreover, the Flu intensity in data set [5] is given as 10.7; in data set [7], 12.2.
